{"source": "paper PMC5113031", "about": "“Variant Exported Blood-Stage Proteins Encoded by Plasmodium Multigene Families Are Expressed in Liver Stages Where They Are Exported into the Parasitophorous Vacuole” (PLoS Pathogens, 2016)", "target": "T1, P. falciparum Fam-A (PF3D7_1463500) (Plasmodium falciparum, UniProt Q8IKK1)", "T1 construct": "region encoding START domain, codon-optimised, cloned in pMALc2x, N-terminal His6, E. coli BL21(DE3), Ni and SEC, monomeric", "T1 sequence (Q8IKK1 entry or part of it)": "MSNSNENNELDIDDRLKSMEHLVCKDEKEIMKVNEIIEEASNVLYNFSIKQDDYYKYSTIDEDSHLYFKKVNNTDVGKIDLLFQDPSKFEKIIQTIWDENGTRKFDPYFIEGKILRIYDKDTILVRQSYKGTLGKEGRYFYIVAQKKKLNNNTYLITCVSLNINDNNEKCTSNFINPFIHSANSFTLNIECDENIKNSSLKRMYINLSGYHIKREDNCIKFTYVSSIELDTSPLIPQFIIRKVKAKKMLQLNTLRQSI", "assay": "[…]-PC transfer from donor to acceptor vesicles", "format": "biochemical", "details": "pH 7.4, 37 °C, 30 min, 25 μg/ml protein, BSA 1 mg/ml; labelled compound (14C)", "data": [{"smiles": "CCCCCCCCCCCCCCCC(=O)OC[C@H](COP(=O)([O-])OCC[N+](C)(C)C)OC(=O)CCCCCCCCCCCCCCC", "note": "[L-α-DiPalmitoyl-Phosphatidylcholine]", "values": [{"measurement": "PC transfer activity", "result": "P. falciparum Fam-A reproducibly showed a lower, but detectable, level of PC transfer activity"}]}]}
